Measured values taken from patent US20250134825A1, “METHOD FOR PRODUCING MEDICATIONS AND VACCINES” (MSLsolutions GmbH, priority 2022, published 2025).

What was measured:
[1] = single substance, value given in the literature; cited from earlier work
[2] = Solubility in solvents (2,5-dimethylisosorbide, water, polyols); conditions: temperature range 55° C. to 70° C.
[3] = Stability of vitamin C (model substance for mRNA) in the carrier system; format: physicochemical; conditions: more than 15 wt. % vitamin C, with panthenol, composition of Table 16

In the case of CCCCCCCCCCCCCCCCCC(=O)OC[C@H](COP(=O)([O-])OCC[N+](C)(C)C)OC(=O)CCCCCCCCCCCCCCCCC [DSPC, 1,2-distearoyl-sn-glycero-3-phosphocholine], the HLB [1] is listed as 4.5.
For CC(C)CCC[C@@H](C)[C@H]1CC[C@H]2[C@@H]3CC=C4C[C@@H](O)CC[C@]4(C)[C@H]3CC[C@]12C [cholesterol], the “solubility in 2,5-dimethylisosorbide” value [2] was “dissolved in high concentrations”.
In the case of CC[C@H](/C=C/[C@@H](C)[C@H]1CC[C@H]2[C@@H]3CC=C4C[C@@H](O)CC[C@]4(C)[C@H]3CC[C@]12C)C(C)C [stigmasterol], the “concentration completely dissolved in 2,5-dimethylisosorbide” value [2] is reported as “over 50%”.
With O=C1O[C@H]([C@@H](O)CO)C(O)=C1O [vitamin C, ascorbic acid] the “stability in the composition or carrier system” value [3] was “high stability”.
